These results are taken from patent US7115296B2, “N-alkylaspartyl amide derivative and sweetening agent” (Ajinomoto Co., Inc., priority 2001, dated 2006).

The conditions of data set [1]: times that of sucrose; reported in WO 94/11391; cited from earlier work.
A short description of another data set: physchem. To be noted: buffer, pH 3.
Data set [2] in a line: sensory (organoleptic) test of sweetening potency.
Where [3] appears, read: times the sweetness of sugar, sensory test.
Setting [4] is: values compared to sweetening potency of a 4% aqueous solution of sucrose.

Each structure is given as a SMILES string. Like-named read-outs stand apart in the source and are kept apart here. Peptide text beside a SMILES is read from it.

For the compound `COC(=O)[C@H](Cc1ccccc1)NC(=O)[C@H](CC(=O)O)NCCC(C)(C)C` [N-[N-(3,3-dimethylbutyl)-L-α-aspartyl]-L-phenylalanine 1-methyl ester], the Sweetening potency in data set [1] is on record as 10000 times.
As to `COC(=O)[C@H](Cc1ccccc1)NC(=O)[C@@H](N)CC(=O)O` [aspartame] (H-Asp-Phe-OMe), in the data set “physchem”, the half-life is ~30 h.
Consider `COc1ccc(CCCN[C@@H](CC(=O)O)C(=O)N[C@H](C)C(O)CC2CCCCC2)cc1O` (mixture of isomers) [compound 12, N-[3-(3-hydroxy-4-methoxyphenyl)propyl]-α-L-aspartyl N-(1R,2RS)-1-methyl-2-hydroxy-3-cyclohexylpropyl amide], for which the results for the Sweetening potency in data set [2] (setting [3]) and in data set [2] (setting [4]) were 4000 times and 4000, respectively.
With `CC[C@@H](C[C@H](O)[C@@H](C)NC(=O)[C@H](CC(=O)O)NCCC(C)(C)c1ccc(O)c(C)c1)c1ccccc1` [compound 10, N-[3-methyl-3-(3-methyl-4-hydroxyphenyl)butyl]-α-L-aspartyl N-(1R,2S,4S)-1-methyl-2-hydroxy-4-phenylhexyl amide], the figures for the Sweetening potency in data set [2] (setting [3]) and in data set [2] (setting [4]) were 15000 times and 15000, respectively.
On the same counts, the results for `CC[C@@H](C[C@H](O)[C@@H](C)NC(=O)[C@H](CC(=O)O)NCCCc1ccc(O)cc1O)c1ccccc1` [compound 4, N-[3-(2,4-dihydroxyphenyl)propyl]-α-L-aspartyl N-(1R,2S,4S)-1-methyl-2-hydroxy-4-phenylhexyl amide] are 10000 times and 10000.
In the same order, the values of `CC[C@@H](C[C@H](O)[C@@H](C)NC(=O)[C@H](CC(=O)O)NCCC(C)(C)CCO)c1ccccc1` [compound 15, N-(3,3-dimethyl-5-hydroxypentyl)-α-L-aspartyl N-(1R,2S,4S)-1-methyl-2-hydroxy-4-phenylhexyl amide] are 6500 times and 6500.
On to `CC[C@@H](C[C@H](O)[C@@H](C)NC(=O)[C@H](CC(=O)O)NCCC(C)(C)CCCO)c1ccccc1` [compound 16, N-(3,3-dimethyl-6-hydroxyhexyl)-α-L-aspartyl N-(1R,2S,4S)-1-methyl-2-hydroxy-4-phenylhexyl amide], for which the values for the Sweetening potency in data set [2] (setting [3]) and in data set [2] (setting [4]) were 4500 times and 4500, respectively.
With `COc1ccc(CCCN[C@@H](CC(=O)O)C(=O)N[C@H](C)[C@H](O)CC2CCCCC2)cc1O` [compound 13, N-[3-(3-hydroxy-4-methoxyphenyl)propyl]-α-L-aspartyl N-(1R,2R)-1-methyl-2-hydroxy-3-cyclohexylpropyl amide], the figures for the Sweetening potency in data set [2] (setting [3]) and in data set [2] (setting [4]) were 5000 times and 5000, respectively.
As for `CC[C@@H](C[C@H](O)[C@@H](C)NC(=O)[C@H](CC(=O)O)NCCC(C)(C)c1ccc(OC)c(O)c1)c1ccccc1` [compound 9, N-[3-methyl-3-(3-hydroxy-4-methoxyphenyl)butyl]-α-L-aspartyl N-(1R,2S,4S)-1-methyl-2-hydroxy-4-phenylhexyl amide], the Sweetening potency result is on record as “approximately 15000 times” in data set [2] (setting [3]); 15000 times in data set [2] (times the sweetness of sugar, sensory test, listed as Compound No.9); 15000 in data set [2] (setting [4]).
For the compound `CC[C@@H](C[C@H](O)[C@@H](C)NC(=O)[C@H](CC(=O)O)NCCCc1ccc(OC)c(O)c1)c1ccccc1` [compound 1, N-[3-(3-hydroxy-4-methoxyphenyl)propyl]-α-L-aspartyl N-(1R,2S,4S)-1-methyl-2-hydroxy-4-phenylhexyl amide], the Sweetening potency entry in data set [2] (setting [3]) is recorded as “approximately 15000 times”; in data set [2] (times the sweetness of sugar, sensory test, listed as Compound No.1), 15000 times; in data set [2] (setting [4]) it was 15000.
With `CC[C@H](C[C@H](O)[C@@H](C)NC(=O)[C@H](CC(=O)O)NCCCc1ccc(OC)c(O)c1)c1ccccc1` [compound 11, N-[3-(3-hydroxy-4-methoxyphenyl)propyl]-α-L-aspartyl N-(1R,2S,4R)-1-methyl-2-hydroxy-4-phenylhexyl amide], the Sweetening potency is listed as 4000 times in data set [2] (setting [3]) and 4000 in data set [2] (setting [4]).
In the same order, the values of `CC[C@@H](C[C@H](O)[C@@H](C)NC(=O)[C@H](CC(=O)O)NCCCc1ccc(O)c(C)c1)c1ccccc1` [compound 6, N-[3-(3-methyl-4-hydroxyphenyl)propyl]-α-L-aspartyl N-(1R,2S,4S)-1-methyl-2-hydroxy-4-phenylhexyl amide] are 4000 times and 4000.
On the same counts, the results for `CC[C@@H](C[C@H](O)[C@@H](C)NC(=O)[C@H](CC(=O)O)NCCCc1ccc(O)c(OC)c1)c1ccccc1` [compound 2, N-[3-(3-methoxy-4-hydroxyphenyl)propyl]-α-L-aspartyl N-(1R,2S,4S)-1-methyl-2-hydroxy-4-phenylhexyl amide] are 10000 times and 10000.
Turning to `CC[C@@H](C[C@H](O)[C@@H](C)NC(=O)[C@H](CC(=O)O)NCCCc1ccc(OC)cc1O)c1ccccc1` [compound 3, N-[3-(2-hydroxy-4-methoxyphenyl)propyl]-α-L-aspartyl N-(1R,2S,4S)-1-methyl-2-hydroxy-4-phenylhexyl amide], the Sweetening potency in data set [2] (setting [3]) was 6000 times; in data set [2] (setting [4]) it was 6000.
In the same order, the values of `CC[C@@H](C[C@H](O)[C@@H](C)NC(=O)[C@H](CC(=O)O)NCCCc1ccc(O)cc1)c1ccccc1` [compound 7, N-[3-(4-hydroxyphenyl)propyl]-α-L-aspartyl N-(1R,2S,4S)-1-methyl-2-hydroxy-4-phenylhexyl amide] are 6000 times and 6000.
On the same counts, the results for `CC[C@@H](C[C@H](O)[C@@H](C)NC(=O)[C@H](CC(=O)O)NCCCc1ccc(C)c(O)c1)c1ccccc1` [compound 5, N-[3-(3-hydroxy-4-methylphenyl)propyl]-α-L-aspartyl N-(1R,2S,4S)-1-methyl-2-hydroxy-4-phenylhexyl amide] are 6000 times and 6000.
In the same order, the values of `COc1ccc(C(C)(C)CCN[C@@H](CC(=O)O)C(=O)N[C@H](C)[C@H](O)CC2CCCCC2)cc1O` [compound 14, N-[3-methyl-3-(3-hydroxy-4-methoxyphenyl)butyl]-α-L-aspartyl N-(1R,2R)-1-methyl-2-hydroxy-3-cyclohexylpropyl amide] are 5000 times and 5000.
For the compound `CC[C@@H](C[C@H](O)[C@@H](C)NC(=O)[C@H](CC(=O)O)NCCCc1ccc(OC)cc1)c1ccccc1` [compound 8, N-[3-(4-methoxyphenyl)propyl]-α-L-aspartyl N-(1R,2S,4S)-1-methyl-2-hydroxy-4-phenylhexyl amide], the Sweetening potency was found to be 3000 times in data set [2] (setting [3]) and 3000 in data set [2] (setting [4]).

As usually defined, the half-life is the time in which the quantity being followed falls by half.
